Holding throughout (test): Post-emergence efficacy, Method A
Format in all cases: in vivo

The subject of assay [1] is Ipomoea hederacea (IPOHE). To be noted: read-out: Control of weed species after post-emergence application, IPOHE.
Assay [2] concerns Euphorbia heterophylla (EPHHL). To be noted: read-out: Control of weed species after post-emergence application, EPHHL.
Assay [3] concerns Chenopodium album (CHEAL). Conditions: read-out: Control of weed species after post-emergence application, CHEAL.
Assay [4] deals with Amaranthus palmeri (AMAPA). Conditions: read-out: Control of weed species after post-emergence application, AMAPA.
For another assay, the system named is Lolium perenne (LOLPE). To be noted: read-out: Control of weed species after post-emergence application, LOLPE.
In assay [5] the test system is Digitaria sanguinalis (DIGSA). To be noted: read-out: Control of weed species after post-emergence application, DIGSA.
The test system of another assay is Eleusine indica (ELEIN). To be noted: read-out: Control of weed species after post-emergence application, ELEIN.
The subject of assay [6] is Echinochloa crus-galli (ECHCG). Conditions: read-out: Control of weed species after post-emergence application, ECHCG.
In the next assay the test system is Setaria faberi (SETFA). Conditions: read-out: Control of weed species after post-emergence application, SETFA.
[7] abbreviates: 500 g/Ha, 100=total damage to plant, 0=no damage, evaluated after 7 and 14 days.
Where [8] appears, read: 1000 g/Ha, 100=total damage to plant, 0=no damage, evaluated after 7 and 14 days.

SMILES strings stand for the structures. Counter-ions that a name gives are not always drawn. Like-named read-outs stand apart in the source and are kept apart here.

As for `O=C(O)CC[n+]1ccc(-c2nc(O)ns2)cc1` [Compound A97, 3-[4-(3-hydroxy-1,2,4-thiadiazol-5-yl)pyridin-1-ium-1-yl]propanoic acid bromide], the pest or weed control at 500 g/ha came to 10% in assay [1] (setting [7]); 10% in [2] (setting [7]); 50% in assay [3] (setting [7]); 0% in [4] (setting [7]); 10% with Lolium perenne (LOLPE) (setting [7]); 0% in assay [5] (setting [7]). The pest or weed control at 500 g/ha in the assay on Eleusine indica (ELEIN) (setting [7]) amounted to 10%; in assay [6] (setting [7]), 0%; in the assay with Setaria faberi (SETFA) (setting [7]), 10%.

On to `CCOP(C)(=O)C[n+]1ccc(-c2ncns2)cc1` (stereo not drawn) [Compound A47, 5-[1-[[ethoxy(methyl)phosphoryl]methyl]pyridin-1-ium-4-yl]-1,2,4-thiadiazole trifluoromethanesulfonate], for which the pest or weed control at 500 g/ha in assay [1] is 10%; in [2], 10%; in assay [3], 60%; in assay [4], 60%; with Lolium perenne (LOLPE) it was 0%; in [5] it was 10%. Further, the pest or weed control at 500 g/ha (in the assay with Eleusine indica (ELEIN); in assay [6]; in the assay on Setaria faberi (SETFA)) was 10% in each case.

`O=S(=O)([O-])C[n+]1ccc(-c2nc(C(F)(F)F)ns2)cc1` [Compound A85]: the pest or weed control at 500 g/ha in [1] (setting [7]) was 100%; in assay [2] (setting [7]), 100%; in assay [3] (setting [7]), 90%; in [4] (setting [7]), 100%; with Lolium perenne (LOLPE) (setting [7]) it was 90%; in assay [5] (setting [7]), 100%. Also, the pest or weed control at 500 g/ha (in the assay with Eleusine indica (ELEIN) (setting [7]); in assay [6] (setting [7]); with Setaria faberi (SETFA) (setting [7])) was 100% each time.

For `O=S(=O)([O-])C[n+]1ccc(-c2nc(Br)ns2)cc1` [Compound A96], the pest or weed control at 500 g/ha stood at 30% in assay [1] (setting [7]); 100% in assay [2] (setting [7]); 100% in assay [3] (setting [7]); 100% in assay [4] (setting [7]); 100% in the assay on Lolium perenne (LOLPE) (setting [7]); 100% in [5] (setting [7]). For the same compound, the pest or weed control at 500 g/ha in the assay with Eleusine indica (ELEIN) (setting [7]) amounted to 90%; in [6] (setting [7]) it was 100%; in the assay with Setaria faberi (SETFA) (setting [7]), 80%.

Turning to `Cc1nnc(-c2cc[n+](CC(=O)O)cc2)s1` [Compound A95], the pest or weed control at 500 g/ha in [1] (setting [7]) amounted to 10%; in assay [2] (setting [7]), 10%; in [3] (setting [7]), 30%; in assay [4] (setting [7]) it was 40%; in the assay with Lolium perenne (LOLPE) (setting [7]), 0%; in [5] (setting [7]), 10%. Moreover, the pest or weed control at 500 g/ha in the assay with Eleusine indica (ELEIN) (setting [7]) worked out at 60%; in assay [6] (setting [7]), 20%; in the assay on Setaria faberi (SETFA) (setting [7]), 10%.

Consider `N#Cc1nsc(-c2cc[n+](CCC(=O)O)cc2)n1` [Compound A89], for which the pest or weed control at 500 g/ha worked out at 10% in assay [1] (setting [7]); 20% in assay [2] (setting [7]); 30% in [3] (setting [7]); 30% in assay [4] (setting [7]); 10% in the assay on Lolium perenne (LOLPE) (setting [7]); 90% in assay [5] (setting [7]). Besides, the values for the pest or weed control at 500 g/ha (in the assay with Eleusine indica (ELEIN) (setting [7]); in assay [6] (setting [7]); in the assay on Setaria faberi (SETFA) (setting [7])) were 80%, 60% and 80%, respectively.

`O=S(=O)([O-])OCC[n+]1ccc(-c2nnco2)cc1` [Compound A64]: the pest or weed control at 500 g/ha in assay [1] (setting [7]) turned out to be 20%; in assay [2] (setting [7]), 30%; in assay [3] (setting [7]), 30%; in [4] (setting [7]), 50%; with Lolium perenne (LOLPE) (setting [7]), 10%; in [5] (setting [7]), 30%. Also, the results for the pest or weed control at 500 g/ha (with Eleusine indica (ELEIN) (setting [7]); in assay [6] (setting [7]); with Setaria faberi (SETFA) (setting [7])) were 20%, 50% and 20%, respectively.

As to `O=S(=O)([O-])CC[n+]1ccc(-c2cnns2)cc1` [Compound A19], the pest or weed control at 500 g/ha in assay [1] (setting [7]) was 50%; in assay [2] (setting [7]), 50%; in [3] (setting [7]), 50%; in [4] (setting [7]), 100%; in the assay with Lolium perenne (LOLPE) (setting [7]), 30%; in assay [5] (setting [7]) it was 30%. For the same compound, the pest or weed control at 500 g/ha with Eleusine indica (ELEIN) (setting [7]) was found to be 30%; in assay [6] (setting [7]) it was 40%; in the assay with Setaria faberi (SETFA) (setting [7]), 40%.

As for `O=S(=O)([O-])CCC[n+]1ccc(-c2cnsn2)cc1` [Compound A12], the pest or weed control at 1000 g/ha came out at 0% in assay [1] (setting [8]); 20% in assay [2] (setting [8]); 0% in assay [3] (setting [8]); 0% in assay [4] (setting [8]); 10% in the assay on Lolium perenne (LOLPE) (setting [8]); 20% in assay [5] (setting [8]). For the same compound, the figures for the pest or weed control at 1000 g/ha (in the assay with Eleusine indica (ELEIN) (setting [8]); in assay [6] (setting [8]); in the assay on Setaria faberi (SETFA) (setting [8])) were 20%, 0% and 0%, respectively.

As to `O=S(=O)([O-])C[n+]1ccc(-c2ccns2)cc1` [Compound A87], the pest or weed control at 500 g/ha is 0% in assay [1] (setting [7]); 20% in assay [2] (setting [7]); 10% in assay [3] (setting [7]); 0% in assay [4] (setting [7]); 0% in the assay on Lolium perenne (LOLPE) (setting [7]); 0% in [5] (setting [7]). In addition, the pest or weed control at 500 g/ha with Eleusine indica (ELEIN) (setting [7]) is 0%; in assay [6] (setting [7]), 20%; in the assay with Setaria faberi (SETFA) (setting [7]) it was 20%.

Take `O=C(O)C[n+]1ccc(-c2nccs2)cc1` [Compound A24]: the pest or weed control at 500 g/ha in assay [1] (setting [7]) was 20%; in assay [2] (setting [7]), 40%; in [3] (setting [7]), 40%; in assay [4] (setting [7]), 0%; in the assay with Lolium perenne (LOLPE) (setting [7]), 0%; in assay [5] (setting [7]) it was 10%. The pest or weed control at 500 g/ha (with Eleusine indica (ELEIN) (setting [7]); in assay [6] (setting [7]); with Setaria faberi (SETFA) (setting [7])) was 0% each time.

Turning to `O=S(=O)([O-])OCC[n+]1ccc(-c2csnn2)cc1` [Compound A65, 2-[4-(thiadiazol-4-yl)pyridin-1-ium-1-yl]ethyl sulfate], the pest or weed control at 500 g/ha in [1] (setting [7]) is 20%; in [2] (setting [7]) it was 20%; in assay [3] (setting [7]) it was 20%; in assay [4] (setting [7]), 30%; with Lolium perenne (LOLPE) (setting [7]), 10%; in assay [5] (setting [7]), 30%. Also, the pest or weed control at 500 g/ha in the assay on Eleusine indica (ELEIN) (setting [7]) turned out to be 20%; in [6] (setting [7]), 20%; in the assay on Setaria faberi (SETFA) (setting [7]), 10%.

`Cc1nc(-c2cc[n+](CCCS(=O)(=O)[O-])cc2)no1` [Compound A71]: the pest or weed control at 500 g/ha in [1] (setting [7]) was found to be 30%; in assay [2] (setting [7]) it was 40%; in assay [3] (setting [7]), 50%; in assay [4] (setting [7]) it was 20%; in the assay with Lolium perenne (LOLPE) (setting [7]), 0%; in assay [5] (setting [7]), 30%. In addition, the pest or weed control at 500 g/ha in the assay on Eleusine indica (ELEIN) (setting [7]) was determined as 20%; in assay [6] (setting [7]) it was 20%; with Setaria faberi (SETFA) (setting [7]) it was 10%.

These data come from patent publication US20220104493A1, “HERBICIDAL COMPOUNDS” (SYNGENTA CROP PROTECTION AG, priority 2019, published 2022).
